Where no end group is shown, it is not given here. The star is where a group is joined. Palmitoyl = CCCCCCCCCCCCCCCC(=O)*
Experiments:
[1] = system: splenocytes stimulated with anti-CD40 and IL-4; experiment: Inhibition of IL-4 activity: anti-CD40 + IL-4 proliferation of splenocytes, tritiated thymidine; format: cell-based, Balb/c mice; conditions: 10 μM
Text: It is commonly described that the immunomodulatory potential of IFN-γ lies in its ability to polarize the establishment of a type-1 T helper (Th1) response, while at the same time inhibiting the development of a type-2 T helper (Th2) response. This inhibitory action on the polarization of the Th2 response takes place mainly via inhibition of the activity of IL-4. […] The stimulation of splenocytes with an anti-CD40 antibody (antibody directed against a surface cell label: CD40) and IL-4 induces a proliferation of the murine B cells, following a synergistic action between the CD40 and IL-4 stimulation (Hasbold et al. 1994).
The splenocytes taken from Balb/c mice are cultured and stimulated with anti-CD40 (10 μg/ml) and IL-4 (10 U/ml). 10 μM of the synthetic agonist of IFN-γ (MuL) or of its control lipopeptide (MuSL) are added. After stimulation for 24 hours, tritiated thymidine is added at a rate of 0.5 μCurie per well. After incubation for 18 hours, the cells are filtered off and the incorporation of tritiated thymidine is evaluated. This incorporation is proportional to the cell proliferation.

murine splenocytes = experiment: Induction of class II CMH molecules (IA^b) on murine splenocytes by lipopeptide fragments (FIG. 12A); format: cell-based, 129 Sv mice; conditions: murine splenocytes, 24 hours, different concentrations
Protocol: (§1) Fresh splenocytes are obtained from 7-week-old female 129 Sv mice. The COLO 205 human colon carcinoma lines are obtained from the ATCC (American Type Culture Collection). The splenocytes and COLO 205 cells are maintained in RPMI 1640 (Gibco BRL, Courbevoie, France), supplemented with 10% FCS (Gibco BRL), sodium pyruvate (Sigma, St. Louis, USA) and incubated at 37° C. in 5% CO2.
(§2) The cells were stimulated for 24 hours with different concentrations of MuL, L-mIFNγ 113-132, L-mIFNγ 122-132 or MuSL. The murine splenocytes and COLO 205 cells were labelled for the expression of II MHC with 1 μg of anti-mouse IA^b FITC monoclonal antibody (mAb) (Pharmingen, San Diego, USA) and 10 μl of anti-HLA-DR clone TAL.1B5 mouse FITC mAb (Cymbus Biotechnology Ltd, Hants, UK), respectively. A negative control mouse FITC IgG1 (DAKO S. A., Trappes, France) was used as control isotype. The cells were incubated for 1 hour at 4° C. in PBS, 10% FCS and then washed, and the expression of II MHC was analysed by flow cytometry using a Coulter EPILS II cytometer (Coulter, Hialeah, Fla., USA) at a rate of 10,000 events per sample.
(§3) FIG. 12: Induction of class II CMH molecules by human or murine cells stimulated with lipopeptides derived from IFN-γ. The murine splenocytes (A) and the COLO 205 human cell line (B) were incubated for 24 hours with different concentrations of lipopeptides derived from IFN-γ. The cells were labelled with a monoclonal antibody directed against the class II CMH molecules, and analysed by flow cytometry. The ratio between the average fluorescence intensity of the cells treated with the lipopeptides and between the average fluorescence intensity of the untreated cells is indicated on the y-axis. The lipopeptide concentration is indicated in μM on the x-axis; MuL: solid circles; MuSL : hollow circles; L-mIFN 113-132: triangles; L-mIFN 122-132: X.

COLO 205 human cell line = experiment: Induction of HLA-DR on COLO 205 cells by lipopeptide fragments (FIG. 12B); format: cell-based; conditions: COLO 205, 24 hours, different concentrations
Protocol: as §1, §2, §3

[2] = system: human peripheral blood mononuclear cells (PBMC); experiment: Induction of HLA-DR, ICAM-1 and VCAM-1 on human PBMC; format: cell-based; conditions: 24 hours
Protocol: Principle. In the light of the results obtained on the human cell line and on human primary cultures, the immunostimulatory potential of MuL was evaluated on human cells taken directly from a healthy donor.
Procedure. PBMCs are isolated from a bag of blood and the cells are then cultured and stimulated for 24 hours with 25 and 50 μM of MuSL or MuL in a final volume of 1 ml. The cells are then recovered and labelled for the expression of VCAM-1, ICAM-1 and HLA-DR according to the protocol already described above. Finally, the cells are analysed by flow cytometry.

WEHI3 = experiment: Induction of class II CMH molecules on WEHI3 cell line, flow cytometry; format: cell-based, murine; conditions: 50 μM, stimulated for 24 hours
Protocol: (§4) Principle: to check the induction of class II CMH molecules on cell lines (P388D1 and WEHI3: murine myelomonocytes) with the above-mentioned peptides.
(§5) Procedure. The cells are cultured the day before at a rate of 3×10^5 cells per well in 24-well culture plates (NUNC). The following day, the cells are stimulated with the various lipopeptide and peptide constructs at a final concentration of 50 μM in 1 ml of medium. After incubation for 24 hours at 37° C. in an atmosphere saturated with 5% CO2, the cells are recovered and incubated for 1 hour at 4° C. with 3 μg of a biotinylated mouse anti-I-Ad monoclonal antibody (Pharmingen, San Diego, USA). After revelation for 30 minutes with FITC streptavidin used at a dilution of 1:100 (Sigma, St. Louis, USA), the expression of class II molecules is determined by flow cytometry.

[3] = system: cells taken from mice 129 no longer expressing the alpha chain of the IFN-γ receptor (KO mice); experiment: Involvement of the IFN-γ receptor: IA^d and Fc-γ R on cells of mice lacking the alpha chain of the IFN-γ receptor; format: cell-based; conditions: stimulation for 24 hours, flow cytometry
Protocol: (§6) Procedure. The splenocytes and peritoneal cells taken from an animal (Balb/c mouse) are re-cultured at a rate of 2.5×10^6 splenocytes and […] peritoneal cells per well in 24-well plates (NUNC) stimulated with 50 μM of the different peptides in a final volume of 1 ml. After stimulation for 24 hours, the cells are labelled with the anti IA^d monoclonal antibody described in the preceding paragraph, according to the same protocol. To detect the Fc-γ R, the cells are labelled with 1 μg of a rat anti Fc-γ R monoclonal antibody (Pharmingen, San Diego, USA). Next, the cells are incubated for ½ hour with a rat anti IgG biotinylated polyclonal antibody. The revelation is then carried out with FITC streptavidin used at a dilution of 1:100 (Sigma, St. Louis, USA). The expression of Fc-γ R is determined by flow cytometry.
(§7) Principle. to confirm that the biological activity observed was effectively associated with a stimulation of the IFN-γ receptor, we repeated the same experiments, in parallel on splenocytes taken from mice 129 (Wild type: WT) and on cells taken from mice 129 no longer expressing the alpha chain of the IFN-γ receptor (KO mice).
(§8) Procedure. The experimental protocol followed is identical to that described in paragraph 2 above.

[4] = system: L929 cells infected with the VSV virus; format: cell-based, mouse; conditions: 1 to 10 μM
P388D1 = experiment: Induction of class II CMH molecules on P388D1 cell line, flow cytometry; format: cell-based, murine; conditions: 50 μM, stimulated for 24 hours
Protocol: as §4, §5

[5] = system: human colon carcinoma cells (COLO 205); experiment: Induction of HLA-DR on COLO 205 cell line, flow cytometry; format: cell-based; conditions: COLO 205, 50 μM
Protocol: Principle: human colon carcinoma cells (COLO 205) are analysed for their ability to express HLA-DR after having been stimulated with the various peptide constructs.
Procedure. The cell line COLO 205 is cultured at a rate of 3×10^5 cells per well in a 24-well culture plate (NUNC). The following day, the cells are stimulated with the various peptide constructs at a final concentration of 50 μM in 1 ml of medium, and are incubated at 37° C. for 24 hours. The cells are then recovered and labelled using 3 μg of an anti HLA-DR mouse biotinylated monoclonal antibody (clone L243). After revelation with FITC streptavidin, the cells are analysed by flow cytometry.

[6] = system: splenocytes taken from mice 129 (Wild type: WT); experiment: Involvement of the IFN-γ receptor: IA^d and Fc-γ R on splenocytes of wild type mice 129; format: cell-based; conditions: stimulation for 24 hours, flow cytometry
Protocol: as §6, §7, §8

splenocytes = experiment: Expression of class II CMH molecules and Fc-γ receptors on splenocytes taken from an animal; format: cell-based, Balb/c mouse; conditions: 50 μM, 24 hours
Protocol: (§9) Principle: to evaluate the activity of the vectorized agonist on cells taken from an animal and treated in vitro (in order to assess the value of a subsequent in vivo study).
as §6

peritoneal cells = experiment: Expression of class II CMH molecules and Fc-γ receptors on peritoneal cells taken from an animal; format: cell-based, Balb/c mouse; conditions: 50 μM, 24 hours, flow cytometry
Protocol: as §9, §6

Substance: MuSL: control "scrambled" lipopeptide: MuL in which the order of the amino acids has been rearranged, Ac-K(Pam) (Ac-K(Palmitoyl)PSRENQNAVKIQKLSVVLRREQKHRVERLAFRNQSLPF)
- effect on the synergistic anti-CD40 + IL-4 proliferation (FIG. 4) [1]: no effect
- increase in class II CMH molecules (FIG. 12A) (murine splenocytes): neither L-mIFN-γ 122-132 nor MuSL are active
- increase in class II CMH molecules (FIG. 12B) (COLO 205 human cell line): neither L-mIFN-γ 122-132 nor MuSL are active
- percentage of ICAM-1 detected on PBMCs ([2]; 25 μM): 29.4%
- percentage of VCAM-1 detected on PBMCs ([2]; 25 μM): 39.7%
- percentage of HLA-DR detected on PBMCs ([2]; 50 μM): 58.3%
- percentage of ICAM-1 detected on PBMCs ([2]; 50 μM): 32%
- percentage of VCAM-1 detected on PBMCs ([2]; 50 μM): 86.9%
- percentage of class II CMH detected by flow cytometry, WEH1 (WEHI3): 15%
- KO mice II CMR (%) [3]: 4%
- KO mice RFc (%) [3]: 3%
- effect on viral lysis (FIG. 2) [4]: no effect on viral lysis
- percentage of class II CMH detected by flow cytometry, P388D1 (P388D1): 13%
- induction of the expression of HLA-DR [5]: no activity
- % HLA-DR ([5]; 24 hours, flow cytometry): 8.9%
- WT mice II CMH (%) [6]: 4%
- WT mice RFc (%) [6]: 2%
- splenocytes II CMH (%) (splenocytes; flow cytometry): 14%
- splenocytes RFc (%) (splenocytes; flow cytometry): 15%
- increase of IA^d and of Fc-γ R on the treated cells (splenocytes; splenocytes and peritoneal cells): no notable activity
- peritoneal cells II CMH (%) (peritoneal cells): 13%
- peritoneal cells RFc (%) (peritoneal cells): 20%
